Test results published in patent US11731964B2, “Benzamide antibacterial agents” (Purdue Research Foundation, priority 2018, dated 2023).
≈ marks a conversion by molar mass, not a printed value. Read-outs that look alike come from different tables or passages of the source. Blank lines part the entries; values can stand above or below the molecule they belong to.

Columns and labels:
[1] = system: Clostridium difficile ATCC BAA 1801; experiment: Clostridium difficile inhibition analysis; type: cell-based; conditions: for Antibacterial activity: Table 7, C. difficile ATCC BAA 1801
[2] = system: C. difficile NR-32883 (P2); experiment: Clostridium difficile inhibition analysis; type: cell-based; conditions: for Antibacterial activity: Table 7, C. difficile NR-32883 (P2)
[3] = system: Clostridium difficile ATCC 9689; experiment: Clostridium difficile inhibition analysis; type: cell-based; conditions: Table 6, ATCC 9689
[4] = system: E. faecium ATCC; experiment: MIC and MBC; type: cell-based
Protocol: (§1) Bacteria were cultured in cation-adjusted Mueller Hinton Broth (for strains in Tables 1 and 4) or Brain Heart Infusion broth (for Enterococcus faecium) or Tryptic Soy Broth (all other bacteria) in a 96-well plate at 37° C. for at least 20 hours. The MIC was classified as the lowest concentration where no visual growth of bacteria was observed. The minimum bactericidal concentration (MBC) was tested by spotting 4 μL from wells with no growth onto Tryptic Soy Agar (TSA) plates. Plates were incubated at 37° C. for at least 18 hours before recording the MBC.

[5] = system: MRSA NRS123 (USA400); experiment: MIC and MBC; type: cell-based; conditions: Staphylococcus aureus
Protocol: as §1

[6] = system: MRSA NRS385 (USA500); experiment: MIC and MBC; type: cell-based; conditions: Staphylococcus aureus
Protocol: as §1

[7] = system: MRSA NRS386 (USA700); experiment: MIC and MBC; type: cell-based; conditions: Staphylococcus aureus
Protocol: as §1

[8] = system: MRSA NRS384 (USA300); experiment: MIC and MBC; type: cell-based; conditions: Staphylococcus aureus
Protocol: as §1

[9] = system: MRSA NRS387 (USA800); experiment: MIC and MBC; type: cell-based; conditions: Staphylococcus aureus
Protocol: as §1

[10] = system: VISA NRS1; experiment: MIC and MBC; type: cell-based, S. aureus; conditions: Staphylococcus aureus
Protocol: as §1

[11] = system: VRSA VRS12; experiment: MIC and MBC; type: cell-based, S. aureus
Protocol: as §1

[12] = system: C. difficile NR-13435 (isolate 9); experiment: Clostridium difficile inhibition analysis; type: cell-based; conditions: for Antibacterial activity: Table 7, C. difficile NR-13435 (isolate 9)
[13] = system: C. difficile NR-32904 (P30); experiment: Clostridium difficile inhibition analysis; type: cell-based; conditions: for Antibacterial activity: Table 7, C. difficile NR-32904 (P30)
[14] = system: S. aureus ATCC 25923; experiment: MIC, broth microdilution; type: cell-based; conditions: Staphylococcus aureus, ATCC25923
Protocol: as §1

[15] = system: VRE (E. faecalis) ATCC 51575; experiment: MIC, broth microdilution; type: cell-based
Protocol: as §1

[16] = system: E. faecalis ATCC 29212; experiment: MIC, broth microdilution; type: cell-based; conditions: Enterococcus faecalis, ATCC29212
Protocol: as §1

[17] = system: L. monocytogenes ATCC 19115; experiment: MIC, broth microdilution; type: cell-based; conditions: Listeria monocytogenes, ATCC19115
Protocol: as §1

[18] = system: MRSA ATCC 33592; experiment: MIC, broth microdilution; type: cell-based; conditions: Staphylococcus aureus
Protocol: as §1

[19] = system: MRSA NRS119; experiment: MIC and MBC; type: cell-based, Staphylococcus aureus; conditions: Staphylococcus aureus
Protocol: as §1

[20] = system: Clostridium difficile ATCC 43255; experiment: Clostridium difficile inhibition analysis; type: cell-based; conditions: for Antibacterial activity: Table 7, C. difficile ATCC 43255
[21] = system: C. difficile NR-32895 (P19); experiment: Clostridium difficile inhibition analysis; type: cell-based; conditions: for Antibacterial activity: Table 7, C. difficile NR-32895 (P19)
[22] = system: C. difficile NR-32891 (P13); experiment: Clostridium difficile inhibition analysis; type: cell-based; conditions: for Antibacterial activity: Table 7, C. difficile NR-32891 (P13)
[23] = system: C. difficile NR-13432 (isolate 6); experiment: Clostridium difficile inhibition analysis; type: cell-based; conditions: for Antibacterial activity: Table 7, C. difficile NR-13432 (isolate 6)
[24] = system: S. aureus; experiment: Screening of compounds for growth inhibition of S. aureus at 16 μg/mL (OD600); type: cell-based; conditions: compound at 16 μg/mL, 24 hours, compared to DMSO control
Protocol: Library compounds and analogs of F6 were dissolved in DMSO at 10 mg/mL. S. aureus was cultured in Mueller Hinton Broth to early exponential phase at which point culture aliquots were incubated with compounds at 16 μg/mL or DMSO in duplicates. The culture was continued at 37° C. for 24 hours. Aliquots (100 μL) of the cultures were dispensed into clear 96 well microtiter plates and OD600 was recorded. Percent normalized OD600 was obtained by using the equation [formula] wherein for a given compound, X is the OD600 of culture with the compound, Xo is that of media only and XT is the OD600 of the DMSO control.

[25] = system: S. aureus; experiment: MIC (Table 5, strain not given); type: cell-based; conditions: Staphylococcus aureus; S. aureus (Table 5)
Protocol: as §1

[26] = S. aureus ATCC 25923, read-out: MIC
[27] = VRE (E. faecalis) ATCC 51575, read-out: MIC
[28] = E. faecalis ATCC 29212, read-out: MIC
[29] = L. monocytogenes ATCC 19115, read-out: MIC

SMILES: CN[C@H](CC(C)C)C(=O)N[C@H]1C(=O)N[C@@H](CC(N)=O)C(=O)N[C@H]2C(=O)N[C@H]3C(=O)N[C@H](C(=O)N[C@H](C(=O)O)c4cc(O)cc(O)c4-c4cc3ccc4O)[C@H](O)c3ccc(c(Cl)c3)Oc3cc2cc(c3O[C@@H]2O[C@H](CO)[C@@H](O)[C@H](O)[C@H]2O[C@H]2C[C@](C)(N)[C@H](O)[C@H](C)O2)Oc2ccc(cc2Cl)[C@H]1O [Vancomycin, reference compound]
- Clostridium difficile inhibition ([1]; Table 6, ATCC BAA 1801): 1
- Antibacterial activity [1]: 1
- Clostridium difficile inhibition ([2]; Table 6, P2): 0.5
- Antibacterial activity [2]: 0.5
- Clostridium difficile inhibition [3]: 0.5
- MIC ([4]; E. faecium ATCC): >128 µg/mL
- MBC ([4]; Enterococcus faecium): > 128 µg/mL
- MIC ([4]; Enterococcus faecium): > 128 µg/mL
- MBC [5]: ≤ 1 µg/mL
- MIC [5]: ≤ 1 µg/mL
- MBC [6]: 2 µg/mL (≈ 1.38 µM)
- MIC [6]: ≤ 1 µg/mL
- MBC [7]: ≤ 1 µg/mL
- MIC [7]: ≤ 1 µg/mL
- MBC [8]: ≤ 1 µg/mL
- MIC [8]: ≤ 1 µg/mL
- MBC [9]: 2 µg/mL (≈ 1.38 µM)
- MIC [9]: 2 µg/mL (≈ 1.38 µM)
- MBC [10]: 4 µg/mL (≈ 2.76 µM)
- MIC [10]: 4 µg/mL (≈ 2.76 µM)
- MBC ([11]; Staphylococcus aureus, VRSA): > 128 µg/mL
- MIC ([11]; Staphylococcus aureus, VRSA): > 128 µg/mL
- MIC ([11]; VRSA VRS12): >128 µg/mL
- Clostridium difficile inhibition ([12]; Table 6, I9): 2
- Antibacterial activity [12]: 1
- Clostridium difficile inhibition ([13]; Table 6, P30): 0.5
- Antibacterial activity [13]: 1
- MIC [14]: 2 µg/mL (≈ 1.38 µM)
- MIC [15]: > 128 µg/mL
- MIC [16]: 2 µg/mL (≈ 1.38 µM)
- MIC [17]: 1 µg/mL (≈ 0.69 µM)
- MIC [18]: 2 µg/mL (≈ 1.38 µM)
- MBC [19]: ≤ 1 µg/mL
- MIC [19]: ≤ 1 µg/mL
- Clostridium difficile inhibition ([20]; Table 6, ATCC 43255): 1
- Antibacterial activity [20]: 1
- Clostridium difficile inhibition ([21]; Table 6, P19): 4
- Antibacterial activity [21]: 1
- Clostridium difficile inhibition ([22]; Table 6, P13): 0.5
- Antibacterial activity [22]: 0.5
- Clostridium difficile inhibition ([23]; Table 6, I6): 1
- Antibacterial activity [23]: 0.25

- MIC [14, 26]: 16 µg/mL (≈ 41 µM)
- MIC [15, 27]: 32 µg/mL (≈ 82 µM)
- MIC [16, 28]: 32 µg/mL (≈ 82 µM)
- MIC [17, 29]: 32 µg/mL (≈ 82 µM)
- MIC ([18]; MRSA ATCC 33592, read-out: MIC): 16 µg/mL (≈ 41 µM)
SMILES: CN(C)S(=O)(=O)c1ccc(C(=O)Nc2nnc(-c3ccc(F)cc3)o2)cc1 [Compound F3]
- inhibition of growth of S. aureus [24]: significantly inhibited the growth

- MIC [14, 26]: 2 µg/mL (≈ 4.21 µM)
- MIC [15, 27]: 2 µg/mL (≈ 4.21 µM)
- MIC [16, 28]: 4 µg/mL (≈ 8.42 µM)
- MIC [17, 29]: 2 µg/mL (≈ 4.21 µM)
- MIC ([18]; MRSA ATCC 33592, read-out: MIC): 1 µg/mL (≈ 2.11 µM)
SMILES: CC1CC(C)CN(S(=O)(=O)c2ccc(C(=O)Nc3nnc(-c4ccc(Cl)cc4)o3)cc2)C1 (stereo not shown) [Compound F6-5, N-(5-(4-Chlorophenyl)-1,3,4-oxadiazol-2-yl)-4-((3,5-dimethylpiperidin-1-yl)sulfonyl)benzamide]
- inhibition of growth of S. aureus [24]: active

SMILES: C[C@@H]1C[C@H](C)CN(S(=O)(=O)c2csc(C(=O)Nc3nnc(-c4ccc(C(F)(F)F)cc4)o3)c2)C1 [HSGN-193, 4-(((3S,5R)-3,5-dimethylpiperidin-1-yl)sulfonyl)-N-(5-(4-(trifluoromethyl)phenyl)-1,3,4-oxadiazol-2-yl)thiophene-2-carboxamide]
- Antibacterial activity [1]: 0.25
- Antibacterial activity [2]: 0.125
- Antibacterial activity [12]: 0.125
- Antibacterial activity [13]: 0.5
- MIC ([18]; MRSA ATCC 33592, read-out: MIC): 1 µg/mL (≈ 1.94 µM)
- MIC [25]: 0.5 µg/mL (≈ 0.972 µM)
- Antibacterial activity [20]: 0.25
- Antibacterial activity [21]: 0.25
- Antibacterial activity [22]: 0.5
- Antibacterial activity [23]: 0.125

- MIC [14, 26]: 16 µg/mL (≈ 36.8 µM)
- MIC [15, 27]: 32 µg/mL (≈ 73.6 µM)
- MIC [16, 28]: 32 µg/mL (≈ 73.6 µM)
- MIC [17, 29]: 16 µg/mL (≈ 36.8 µM)
- MIC ([18]; MRSA ATCC 33592, read-out: MIC): 16 µg/mL (≈ 36.8 µM)
SMILES: O=C(Nc1nnc(-c2cccs2)s1)c1ccc(S(=O)(=O)N2CCCCC2)cc1 [Compound F4]
- inhibition of growth of S. aureus [24]: significantly inhibited the growth
